Measurements as given in patent EP4759815A1, “FUSED TRICYCLIC COMPOUND, PHARMACEUTICAL COMPOSITION THEREOF, AND USE THEREOF” (Haihe Biopharma Co., Ltd., priority 2023, dated 2025).
Read-outs that look alike come from different tables or passages of the source.

Tests used:
[1] = target: Recombinant human PARP1 protein (Homo sapiens, UniProt P09874); experiment: PARP1 inhibitory activity (histone substrate, chemiluminescent ELISA); assay type: biochemical; conditions: for PARP1/2 Fold selectivity: ratio of PARP2 IC50 to PARP1 IC50
Sequence of Recombinant human PARP1 protein (P09874 whole entry): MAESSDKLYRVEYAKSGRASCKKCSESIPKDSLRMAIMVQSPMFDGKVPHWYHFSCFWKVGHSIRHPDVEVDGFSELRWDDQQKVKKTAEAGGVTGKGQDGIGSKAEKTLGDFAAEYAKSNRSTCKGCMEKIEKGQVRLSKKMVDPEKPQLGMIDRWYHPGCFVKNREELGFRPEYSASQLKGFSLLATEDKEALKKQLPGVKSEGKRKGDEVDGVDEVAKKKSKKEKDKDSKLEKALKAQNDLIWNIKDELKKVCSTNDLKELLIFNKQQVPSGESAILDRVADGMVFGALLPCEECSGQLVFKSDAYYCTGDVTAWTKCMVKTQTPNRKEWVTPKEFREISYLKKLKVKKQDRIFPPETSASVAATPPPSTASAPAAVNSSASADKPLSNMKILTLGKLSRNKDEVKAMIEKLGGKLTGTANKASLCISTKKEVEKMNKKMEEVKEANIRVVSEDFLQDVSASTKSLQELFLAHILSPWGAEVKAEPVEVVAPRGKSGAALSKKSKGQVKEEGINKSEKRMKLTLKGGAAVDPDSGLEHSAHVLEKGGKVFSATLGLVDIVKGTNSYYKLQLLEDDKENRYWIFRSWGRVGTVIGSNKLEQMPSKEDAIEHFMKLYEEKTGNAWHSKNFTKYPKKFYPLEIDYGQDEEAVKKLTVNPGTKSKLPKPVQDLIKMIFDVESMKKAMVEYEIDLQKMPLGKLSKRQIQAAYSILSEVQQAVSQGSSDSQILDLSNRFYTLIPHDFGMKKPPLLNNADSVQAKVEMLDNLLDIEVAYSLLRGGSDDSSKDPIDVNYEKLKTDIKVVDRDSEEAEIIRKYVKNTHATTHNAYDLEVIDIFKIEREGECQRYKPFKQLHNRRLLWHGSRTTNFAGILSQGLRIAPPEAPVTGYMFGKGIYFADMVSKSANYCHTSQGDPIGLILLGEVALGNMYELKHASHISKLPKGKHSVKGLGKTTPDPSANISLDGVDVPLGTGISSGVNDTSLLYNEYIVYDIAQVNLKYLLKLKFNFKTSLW

[2] = system: MDA-MB-436 cells; experiment: MDA-MB-436 cell proliferation inhibition test (CellTiter-Glo, 7 days); assay type: cell-based; conditions: Homo sapiens, MDA-MB-436, 168 h, 7 days incubation
[3] = target: T1, PDE3A (Homo sapiens, UniProt Q14432); experiment: PDE3A enzyme activity test (IMAP FP); assay type: biochemical; conditions: PDE3A protein 0.2 nM, FAM-cAMP 200 nM, 60 minutes at rt; off-target safety
T1 construct: purchased ICE G13020203013
T1 sequence (Q14432 whole entry, species assumed): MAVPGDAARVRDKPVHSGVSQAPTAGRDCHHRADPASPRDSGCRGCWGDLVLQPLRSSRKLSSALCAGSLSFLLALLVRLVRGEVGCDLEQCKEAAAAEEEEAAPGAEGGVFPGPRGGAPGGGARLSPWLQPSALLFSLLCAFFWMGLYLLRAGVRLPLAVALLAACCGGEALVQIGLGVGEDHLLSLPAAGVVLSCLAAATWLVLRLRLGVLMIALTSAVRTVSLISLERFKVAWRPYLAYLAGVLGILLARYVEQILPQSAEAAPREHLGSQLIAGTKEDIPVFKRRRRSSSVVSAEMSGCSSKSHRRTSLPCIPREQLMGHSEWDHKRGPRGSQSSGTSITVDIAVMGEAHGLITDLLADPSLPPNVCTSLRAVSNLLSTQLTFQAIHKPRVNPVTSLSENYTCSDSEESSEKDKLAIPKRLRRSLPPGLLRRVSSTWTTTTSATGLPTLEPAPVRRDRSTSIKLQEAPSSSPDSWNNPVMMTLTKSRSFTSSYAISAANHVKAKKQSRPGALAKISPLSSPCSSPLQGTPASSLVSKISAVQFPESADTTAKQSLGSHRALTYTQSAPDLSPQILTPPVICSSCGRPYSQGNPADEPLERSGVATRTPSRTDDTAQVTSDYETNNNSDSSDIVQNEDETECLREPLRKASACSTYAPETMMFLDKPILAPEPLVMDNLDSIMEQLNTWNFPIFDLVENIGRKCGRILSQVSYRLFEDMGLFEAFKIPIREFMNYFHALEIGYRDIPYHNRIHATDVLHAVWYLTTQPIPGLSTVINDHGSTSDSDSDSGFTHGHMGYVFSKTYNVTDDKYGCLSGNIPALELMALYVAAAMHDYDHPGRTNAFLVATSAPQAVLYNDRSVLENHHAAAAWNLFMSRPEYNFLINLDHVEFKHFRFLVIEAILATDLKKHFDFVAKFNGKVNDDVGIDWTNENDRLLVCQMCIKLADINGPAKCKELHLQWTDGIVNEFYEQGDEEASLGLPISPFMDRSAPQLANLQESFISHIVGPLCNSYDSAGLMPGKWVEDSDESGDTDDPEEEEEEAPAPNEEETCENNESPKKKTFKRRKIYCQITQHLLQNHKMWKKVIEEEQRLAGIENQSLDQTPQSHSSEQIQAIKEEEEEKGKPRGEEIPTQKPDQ

[4] = Preliminary pharmacokinetic tests in mice; assay type: in vivo; conditions: male, ICR
[5] = target: T2, recombinant human PARP2 protein (Homo sapiens, UniProt Q9UGN5); experiment: PARP2 inhibitory activity (histone substrate, chemiluminescent ELISA); assay type: biochemical
T2 construct: purchased BPS 80502
T2 sequence (Q9UGN5 whole entry): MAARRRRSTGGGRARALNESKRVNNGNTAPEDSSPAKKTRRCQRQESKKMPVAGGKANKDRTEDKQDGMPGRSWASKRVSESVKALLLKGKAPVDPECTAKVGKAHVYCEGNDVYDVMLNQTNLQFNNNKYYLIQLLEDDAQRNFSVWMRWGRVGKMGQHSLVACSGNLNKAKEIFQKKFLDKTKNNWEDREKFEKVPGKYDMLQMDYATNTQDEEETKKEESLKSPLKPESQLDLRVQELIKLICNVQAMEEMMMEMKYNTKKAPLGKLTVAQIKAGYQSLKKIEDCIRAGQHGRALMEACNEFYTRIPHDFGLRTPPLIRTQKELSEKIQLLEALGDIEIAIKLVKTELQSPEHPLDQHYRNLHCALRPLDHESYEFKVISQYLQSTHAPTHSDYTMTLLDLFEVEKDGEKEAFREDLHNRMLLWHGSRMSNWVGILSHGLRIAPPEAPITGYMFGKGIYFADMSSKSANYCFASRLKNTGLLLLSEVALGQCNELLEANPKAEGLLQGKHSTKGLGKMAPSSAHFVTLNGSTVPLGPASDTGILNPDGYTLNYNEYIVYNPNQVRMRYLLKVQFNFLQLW

[6] = histone substrate, 500 µM NAD+ added to the substrate solution, read-out: PARP1 IC50
[7] = histone substrate, read-out: PARP2 IC50

SMILES | IC50 [1, 6] [nM] | IC50 [2] [nM] | PARP1/2 Fold selectivity [1] | IC50 [5, 7] [nM] | also measured
CC[C@H]1C(=O)Nc2cc(CN3CCN(c4ccc(C(=O)NC)nc4F)CC3)cc3cnn1c23 [Compound 5-1] | 1.35 | 27.4 |  |  | 
CC[C@@H]1C(=O)Nc2cc(CN3CCN(c4ccc(C(=O)NC)nc4F)CC3)cc3cnn1c23 [Compound 5-2] | 1.03 | 14.8 |  |  | IC50 [3]: > 10000 nM
CCC1C(=O)Nc2cc(CN3CCN(c4ccc(C(=O)NC)nc4F)CC3)cc3cnn1c23 (stereo not drawn) [Compound 5] | 0.78 | 15.4 |  |  | 
CNC(=O)c1ccc(N2CCN(Cc3cc4c5c(cnn5[C@H](C)C(=O)N4)c3)CC2)c(Cl)n1 [Compound 6-2] |  |  |  |  | IC50 [3]: 239 nM
CNC(=O)c1ccc(N2CCN(Cc3cc4c5c(cnn5C(C)C(=O)N4)c3)CC2)c(Cl)n1 (stereo not drawn) [Compound 6] |  |  |  |  | AUC(0-t) ([4]; iv, mouse plasma, i.v.(1mg/kg)): 5030 ng·h/mL; clearance ([4]; iv, mouse plasma, i.v.(1mg/kg)): 3.3 mL/min/kg; half-life ([4]; iv, mouse plasma, i.v.(1mg/kg)): 78 min; bioavailability ([4]; plasma, oral, mouse, p.o.(5mg/kg) versus i.v.(1mg/kg)): 117%; AUC(0-t) ([4]; po, mouse plasma, p.o.(5mg/kg)): 28700 ng·h/mL; half-life ([4]; po, mouse plasma, p.o.(5mg/kg)): 162 min
CCC1C(=O)Nc2cc(CN3CCN(c4ccc(C(=O)NC)nc4Cl)CC3)cc3cnn1c23 (stereo not drawn) [Compound 8] |  | 12.7 |  |  | 
CNC(=O)c1ccc(N2CCN(Cc3cc4c5c(cnn5c3)N(C)C(=O)N4)CC2)c(C)n1 [Compound 19] | 1.42 | < 1.52 | 516 | 732 | IC50 [3]: 433 nM
CNC(=O)c1ccc(N2CCN(Cc3cc4c5c(cnn5CC(=O)N4)c3)CC2)c(Cl)n1 [Compound 26] | 0.28 |  | 5150 | 1440 | 
CCN1C(=O)Nc2cc(CN3CCN(c4ccc(C(=O)NC)nc4C)CC3)cn3ncc1c23 [Compound 30] | 1.24 | 2.7 | 170.8 | 211 | 
CCN1C(=O)Nc2cc(CN3CCN(c4ccc(C(=O)NC)nc4F)CC3)cn3ncc1c23 [Compound 33] |  | < 1.52 |  |  | 
CCN1C(=O)Nc2cc(CN3CCN(c4ccc(C(=O)NC)nc4Cl)CC3)cn3ncc1c23 [Compound 34] |  | 2.3 |  |  | 
CC1C(=O)Nc2cc(CN3CCN(c4ccc(C#N)cn4)CC3)cc3cnn1c23 (stereo not drawn) [Compound 35] |  | 213 |  |  | 
CNC(=O)c1ccc(N2CCN(Cc3cc4c5c(cnn5C5(CC5)C(=O)N4)c3)CC2)c(F)n1 [Compound 37] | 0.24 | < 1.52 | 36.3 | 8.7 | 
CNC(=O)c1ccc(N2CCN(Cc3cc4c5c(cnn5C5(CC5)C(=O)N4)c3)CC2)c(Cl)n1 [Compound 38] |  | < 1.52 |  |  | 
CNC(=O)c1ccc(N2CCN(Cc3cc4c5c(cnn5C5(CC5)C(=O)N4)c3)CC2)c(C)n1 [Compound 39] |  | < 1.52 |  |  | 
CNC(=O)c1ccc(N2CCN(Cc3cc4cnn5c4c(c3F)NC(=O)C53CC3)CC2)c(Cl)n1 [Compound 41] | 0.1 | 4.4 | 719 | 71.9 | 
CNC(=O)c1ccc(N2CCN(Cc3cc4c5c(cnn5[C@@H](C5CC5)C(=O)N4)c3)CC2)c(Cl)n1 [Compound 43-1] | 1.67 | 8.7 | 344.5 | 575 | 
CNC(=O)c1ccc(N2CCN(Cc3cc4c5c(cnn5[C@H](C5CC5)C(=O)N4)c3)CC2)c(Cl)n1 [Compound 43-2] | 1.04 | 1.7 | 133.3 | 139 | 
CNC(=O)c1ccc(N2CCN(Cc3cc4c5c(c3)ncn5[C@@H](C3CC3)C(=O)N4)CC2)c(Cl)n1 [Compound 47-1] | 0.68 | 20.2 | 1326 | 901 | IC50 [3]: > 10000 nM
CNC(=O)c1ccc(N2CCN(Cc3cc4c5c(c3)ncn5[C@H](C3CC3)C(=O)N4)CC2)c(Cl)n1 [Compound 47-2] | 1.21 | 16.7 | 232.5 | 281 | IC50 [3]: > 10000 nM

SMILES | IC50 [1, 6] [nM] | IC50 [2] [nM] | PARP1/2 Fold selectivity [1] | IC50 [5, 7] [nM] | also measured
CNC(=O)c1ccc(N2CCN(Cc3cc4c5c(c3)ncn5[C@@H](C3CC3)C(=O)N4)CC2)c(C)n1 [Compound 49-1] | 0.71 | 20.4 | 1852 | 1310 | 
CNC(=O)c1ccc(N2CCN(Cc3cc4c5c(c3)ncn5[C@H](C3CC3)C(=O)N4)CC2)c(C)n1 [Compound 49-2] | 1.53 | 18 | 281.5 | 431 | IC50 [3]: > 10000 nM
CNC(=O)c1ccc(N2CCN(Cc3cc4c5c(cnn5c3)N(C3CC3)C(=O)N4)CC2)c(F)n1 [Compound 53] | 2.16 | 2.2 | 21.1 | 45.5 | 
CNC(=O)c1ccc(N2CCN(Cc3cc4c5c(cnn5c3)N(C(C)C)C(=O)N4)CC2)c(F)n1 [Compound 55] | 2.64 |  | 382 | 1010 | 
CNC(=O)c1ccc(N2CCN(Cc3cc4c5c(c(C)nn5c3)N(C)C(=O)N4)CC2)c(C)n1 [Compound 57] |  | 1.3 |  |  | 
CNC(=O)c1ccc(N2CCN(Cc3cc4c5c(c(C(F)(F)F)nn5c3)N(C)C(=O)N4)CC2)c(C)n1 [Compound 58] | 0.99 | 1.2 | 206 | 204 | 
CNC(=O)c1ccc(N2CCN(Cc3cc4c5c(cnn5c3)N(C3CCC3)C(=O)N4)CC2)c(C)n1 [Compound 59] |  | 6.5 |  |  | IC50 [3]: > 10000 nM
CNC(=O)c1ccc(N2CCN(Cc3cc4c5c(cnn5c3)N(CC(F)(F)F)C(=O)N4)CC2)c(C)n1 [Compound 61] |  | 16.2 |  |  | IC50 [3]: 1440 nM
CCCN1C(=O)Nc2cc(CN3CCN(c4ccc(C(=O)NC)nc4C)CC3)cn3ncc1c23 [Compound 62] | 3.3 | 20.9 | 422.3 | 1400 | 
CNC(=O)c1ccc(N2CCN(Cc3cc4c5c(cnn5c3)N(CCO)C(=O)N4)CC2)c(C)n1 [Compound 63] | 2.1 | 16.8 | 827.4 | 1830 | 
CNC(=O)c1ccc(N2CCN(Cc3cc4c5c(cnn5c3)NC(=O)N4)CC2)c(C)n1 [Compound 64] |  | 17.5 |  |  | 
CNC(=O)c1ccc(N2CCN(Cc3cn4ncc5c4c(c3C)NC(=O)N5C3CC3)CC2)c(C)n1 [Compound 66] | 3.3 | 48.1 | 417.5 | 1380 | 
CNC(=O)c1ccc(N2CCN(Cc3cc4c5c(cnn5c3)N(CC(C)O)C(=O)N4)CC2)c(C)n1 (stereo not drawn) [Compound 67] |  | 392 |  |  | 
CNC(=O)c1ccc(N2CCN(Cc3cc4c5c(cnn5c3)N(CC3CCC3)C(=O)N4)CC2)c(C)n1 [Compound 69] |  | 720 |  |  | 
CNC(=O)c1ccc(N2CCN(Cc3cc4c5c(cnn5c3)N(C3CCC3)C(=O)N4)C[C@H]2C)c(C)n1 [Compound 72] | 4.9 |  | 97.6 | 474 | 
CNC(=O)c1ccc(N2CCN(Cc3cc4c5c(cnn5c3)N(C3CCC3)C(=O)N4)CC2)c(Cl)n1 [Compound 73] |  | 3.2 |  |  | 
CNC(=O)c1ccc(N2CCN(Cc3cc4c5c(cnn5c3)N(C3CCC3)C(=O)N4)[C@H](C)C2)c(C)n1 [Compound 79] |  | 21.8 |  |  | 
CNC(=O)c1ccc(N2CCN(Cc3cc4c5c(cnn5c3)N(C3CCC3)C(=O)N4)[C@H](C)C2)c(Cl)n1 [Compound 80] |  | 18.7 |  |  | 
CNC(=O)c1ccc(N2CCN(Cc3cc4c5c(c3)ncn5C(C3CCC3)C(=O)N4)CC2)c(Cl)n1 (stereo not drawn) [Compound 81] | 4.2 | 4.6 | 574.1 | 2410 | 
CCN1C(=O)Nc2cc(CN3CCN(c4ccc(C(=O)NC)nc4F)CC3)cc3c2c1nn3C [Compound B1, 5-(4-((3-ethyl-1-methyl-4-oxo-1,3,4,5-tetrahydropyrazolo[3,4,5-d]quinazolin-7-yl)methyl)piperazine-1-yl)-6-fluoro-N-methylpicolinamide, reference compound] |  |  | 2.64 |  | IC50 [1]: 1.4 nM; IC50 [5]: 3.7 nM
